Assay results from PubChem BioAssay AID2060613 (Molecular Pharmacology Branch, DTP, NCI, 2025).

Tested on: 233499-124-R-J3-PDC complex spheroid viability
Test: Anticancer human tumor 233499-124-R-J3-PDC patient-derived colon adenocarcinoma cell line growth inhibition [CLK]
Details: for IC50: curve of first compound; for viability, T/C: stronger effect = lower value
Method in brief: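 Multi-cell-type spheroids combined patient-derived tumor cells with HUVEC endothelial cells and human mesenchymal stem cells. Paired agents were dosed in half-log steps down from about clinical Cmax, or from 10 microM where Cmax was unknown.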

[1] = second compound 0.0316 µM, first compound 0.0316 µM
[2] = second compound 0.0316 µM, first compound 0.1 µM
[3] = second compound 0.0316 µM, first compound 0.316 µM
[4] = second compound 0.0316 µM, first compound 1 µM
[5] = second compound 0.0316 µM, first compound 3.16 µM
[6] = second compound 0.0316 µM, first compound 10 µM
[7] = second compound 0.1 µM, first compound 0.0316 µM
[8] = second compound 0.1 µM, first compound 0.1 µM
[9] = second compound 0.1 µM, first compound 0.316 µM
[10] = second compound 0.1 µM, first compound 1 µM
[11] = second compound 0.1 µM, first compound 3.16 µM
[12] = second compound 0.1 µM, first compound 10 µM
[13] = second compound 0.316 µM, first compound 0.0316 µM
[14] = second compound 0.316 µM, first compound 0.1 µM
[15] = second compound 0.316 µM, first compound 0.316 µM
[16] = second compound 0.316 µM, first compound 1 µM
[17] = second compound 0.316 µM, first compound 3.16 µM
[18] = second compound 0.316 µM, first compound 10 µM
[19] = second compound 1 µM, first compound 0.0316 µM
[20] = second compound 1 µM, first compound 0.1 µM
[21] = second compound 1 µM, first compound 0.316 µM
[22] = second compound 1 µM, first compound 1 µM
[23] = second compound 1 µM, first compound 3.16 µM
[24] = second compound 1 µM, first compound 10 µM
[25] = second compound 3.16 µM, first compound 0.0316 µM
[26] = second compound 3.16 µM, first compound 0.1 µM
[27] = second compound 3.16 µM, first compound 0.316 µM
[28] = second compound 3.16 µM, first compound 1 µM
[29] = second compound 3.16 µM, first compound 3.16 µM
[30] = second compound 3.16 µM, first compound 10 µM
[31] = second compound 10 µM, first compound 0.0316 µM
[32] = second compound 10 µM, first compound 0.1 µM
[33] = second compound 10 µM, first compound 0.316 µM
[34] = second compound 10 µM, first compound 1 µM
[35] = second compound 10 µM, first compound 3.16 µM
[36] = second compound 10 µM, first compound 10 µM
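Also: spheroids exposed to the drug combinations for seven days.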
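For viability, T/C in this document: percent viability relative to DMSO vehicle control wells taken as 100%.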

## COc1ccc([C@@H](O)c2cc(-c3ncnc4cc(N5CCOCC5)ccc34)c(F)cc2Cl)nn1 + CNC(=O)c1ccc(Nc2nc(OC3CCCC3)c3c(-c4ccc5nc(C)oc5c4)c[nH]c3n2)c(OC)c1
Second compound 0.0316 µM
  IC50: > 10000 nM
Second compound 0.1 µM
  IC50: > 10000 nM
Second compound 0.316 µM
  IC50: > 10000 nM
Second compound 1 µM
  IC50: 1510 nM
Second compound 3.16 µM
  IC50: 2680 nM
Second compound 10 µM
  IC50: 118 nM
[1]
  viability, T/C: 94.7%
[2]
  viability, T/C: 89.6%
[3]
  viability, T/C: 86.6%
[4]
  viability, T/C: 97%
[5]
  viability, T/C: 81.1%
[6]
  viability, T/C: 52.8%
[7]
  viability, T/C: 54.9%
[8]
  viability, T/C: 65.2%
[9]
  viability, T/C: 67.8%
[10]
  viability, T/C: 55.8%
[11]
  viability, T/C: 65.5%
[12]
  viability, T/C: 63.8%
[13]
  viability, T/C: 68.4%
[14]
  viability, T/C: 52.1%
[15]
  viability, T/C: 57%
[16]
  viability, T/C: 50.2%
[17]
  viability, T/C: 69.4%
[18]
  viability, T/C: 41.3%
[19]
  viability, T/C: 84.6%
[20]
  viability, T/C: 64%
[21]
  viability, T/C: 64.6%
[22]
  viability, T/C: 51.1%
[23]
  viability, T/C: 48.4%
[24]
  viability, T/C: 37.6%
[25]
  viability, T/C: 72.8%
[26]
  viability, T/C: 68.9%
[27]
  viability, T/C: 37.1%
[28]
  viability, T/C: 55.2%
[29]
  viability, T/C: 65.3%
[30]
  viability, T/C: 39%
[31]
  viability, T/C: 55.3%
[32]
  viability, T/C: 49.2%
[33]
  viability, T/C: 43.7%
[34]
  viability, T/C: 46.4%
[35]
  viability, T/C: 47.7%
[36]
  viability, T/C: 38.9%

## COc1cccc2c1C(=O)c1c(O)c3c(c(O)c1C2=O)CC(O)(C(=O)CO)CC3OC1CC(N)C(O)C(C)O1 (centres undefined) + CNC(=O)c1ccc(Nc2nc(OC3CCCC3)c3c(-c4ccc5nc(C)oc5c4)c[nH]c3n2)c(OC)c1
Second compound 0.0316 µM
  IC50: 336 nM
Second compound 0.1 µM
  IC50: 286 nM
Second compound 0.316 µM
  IC50: 155 nM
Second compound 1 µM
  IC50: 142 nM
Second compound 3.16 µM
  IC50: 115 nM
Second compound 10 µM
  IC50: 79.9 nM
[1]
  viability, T/C: 92%
[2]
  viability, T/C: 85.1%
[3]
  viability, T/C: 38.5%
[4]
  viability, T/C: 38.5%
[5]
  viability, T/C: 13.5%
[6]
  viability, T/C: 6.81%
[7]
  viability, T/C: 71.3%
[8]
  viability, T/C: 71.7%
[9]
  viability, T/C: 40.7%
[10]
  viability, T/C: 34.2%
[11]
  viability, T/C: 17%
[12]
  viability, T/C: 2.92%
[13]
  viability, T/C: 61.7%
[14]
  viability, T/C: 62.1%
[15]
  viability, T/C: 33.8%
[16]
  viability, T/C: 13.8%
[17]
  viability, T/C: 4.56%
[18]
  viability, T/C: 1.31%
[19]
  viability, T/C: 51.1%
[20]
  viability, T/C: 75.6%
[21]
  viability, T/C: 19.3%
[22]
  viability, T/C: 1.71%
[23]
  viability, T/C: 1.27%
[24]
  viability, T/C: 0.38%
[25]
  viability, T/C: 55%
[26]
  viability, T/C: 53%
[27]
  viability, T/C: 27.4%
[28]
  viability, T/C: 1.95%
[29]
  viability, T/C: 0.8%
[30]
  viability, T/C: 0.35%
[31]
  viability, T/C: 56.1%
[32]
  viability, T/C: 48.5%
[33]
  viability, T/C: 11.7%
[34]
  viability, T/C: 0.74%
[35]
  viability, T/C: 0.74%
[36]
  viability, T/C: 0.32%
